Test results: patent publication US9365522B2, “Pyrazole amide derivative” (AMGEN INC., priority 2015, dated 2016)

Biological target: T1, ligand binding domain of human ROR gamma (Homo sapiens, UniProt P51449)
T1 construct: NM_001001523; expressed in transfected cells; host or cells: HEK293T
T1 sequence (P51449 247-497 isoform P51449-2): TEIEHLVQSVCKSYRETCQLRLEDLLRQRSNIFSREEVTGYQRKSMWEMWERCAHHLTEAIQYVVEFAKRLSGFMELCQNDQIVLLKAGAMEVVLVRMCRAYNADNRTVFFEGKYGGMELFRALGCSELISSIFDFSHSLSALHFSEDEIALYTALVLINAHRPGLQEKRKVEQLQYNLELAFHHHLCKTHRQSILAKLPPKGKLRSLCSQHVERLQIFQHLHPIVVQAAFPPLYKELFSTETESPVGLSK
Assay: ROR gamma reporter gene assay (GAL4-RORγ LBD luciferase, Dual-Glo)
Type: cell-based
Settings: HEK293T cells transfected with pM-ROR gamma, 8 concentrations 3.5 nM to 10.5 μM, 24 h incubation; read-out: result (pIC50, inhibition of RORγ transcriptional activity) (converted)
In short: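 Inhibition of RORγ-driven transcription was measured in HEK293T cells expressing a GAL4 fusion of the human RORγ LBD (aa 247-497), with renilla luciferase as internal control. Cells in 10% charcoal-stripped serum received compound (3.5 nM–10.5 μM) for 24 h.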

SMILES	IC50 [pM]
CC(C)(C)CN(CC(=O)c1c(Cl)cc(F)cc1Cl)C(=O)c1cnn([C@H]2CC[C@](C)(C(=O)O)CC2)c1C(F)(F)F [Example 94, trans-4-(4-((2-(2,6-dichloro-4-fluorophenyl)-2-oxoethyl)-(2,2-dimethylpropyl)carbamoyl)-5-(trifluoromethyl)pyrazol-1-yl)-1-methylcyclohexane-1-carboxylic acid]	8320
CC(C)(C)OCCN(CC(=O)c1c(Cl)cncc1Cl)C(=O)c1cnn([C@H]2CC[C@H](C(=O)O)CC2)c1C(F)(F)F [Example 95, trans-(4((2-(3,5-dichloropyridin-4-yl)-2-oxoethyl)-(2-((2-methylpropan-2-yl)oxy)ethyl)carbamoyl)-5-(trifluoromethyl)pyrazol-1-yl)cyclohexane-1-carboxylic acid]	151000
O=C(c1cnn([C@H]2CC[C@H](C(=O)O)CC2)c1C(F)(F)F)N(Cc1ccc(F)cc1)CC(F)(F)c1c(Cl)cccc1Cl [Example 96, trans-4-(4-((2-(2,6-dichlorophenyl)-2,2-difluoroethyl)-((4-fluorophenyl)methyl)carbamoyl)-5-(trifluoromethyl)pyrazol-1-yl)cyclohexane-1-carboxylic acid]	28800
CC(CN(Cc1ccc(F)cc1)C(=O)c1cnn([C@H]2CC[C@H](C(=O)O)CC2)c1C(F)(F)F)c1c(Cl)cccc1Cl (stereo partly drawn) [Example 100, trans-4-(4-(2-(2,6-dichlorophenyl)propyl-((4-fluorophenyl)methyl)carbamoyl)-5-(trifluoromethyl)pyrazol-1-yl)cyclohexane-1-carboxylic acid]	234000
O=C(CN(CC1CCC(F)(F)CC1)C(=O)c1cnn([C@H]2CC[C@H](C(=O)O)CC2)c1C(F)(F)F)c1c(Cl)cncc1Cl [Example 101, trans-4-(4-((2-(3,5-dichloropyridin-4-yl)-2-oxoethyl)-((4,4-difluorocylohexyl)methyl)carbamoyl)-5-(trifluoromethyl)pyrazol-1-yl)cyclohexane-1-carboxylic acid]	87100
CC1(CN(CC(=O)c2c(Cl)cncc2Cl)C(=O)c2cnn([C@H]3CC[C@H](C(=O)O)CC3)c2C(F)(F)F)CCCCC1 [Example 102, trans-4-(4-((2-(3,5-dichloropyridin-4-yl)-2-oxoethyl)-((1-methylcyclohexyl)methyl)carbamoyl)-5-(trifluoromethyl)pyrazol-1-yl)cyclohexane-1-carboxylic acid]	74100
O=C(CN(Cc1ccc(F)cc1)C(=O)c1cnn([C@H]2CC[C@](O)(C(=O)O)CC2)c1C(F)(F)F)c1c(Cl)cncc1Cl [Example 105, cis-4-(4-((2-(3,5-dichloropyridin-4-yl)-2-oxoethyl)-((4-fluorophenyl)methyl)carbamoyl)-5-(trifluoromethyl)pyrazol-1-yl)-1-hydroxycyclohexane-1-carboxylic acid]	204000
O=C(CN(Cc1ccc(F)cc1)C(=O)c1cnn([C@H]2CC[C@@](O)(C(=O)O)CC2)c1C(F)(F)F)c1c(Cl)cncc1Cl [Example 106, trans-4-(4-((2-(3,5-dichloropyridin-4-yl)-2-oxoethyl)-((4-fluorophenyl)methyl)carbamoyl)-5-(trifluoromethyl)pyrazol-1-yl)-1-hydroxycyclohexane-1-carboxylic acid]	380000
CC(C)(C)C#CCN(CC(=O)c1c(Cl)cncc1Cl)C(=O)c1cnn([C@H]2CC[C@H](C(=O)O)CC2)c1C(F)(F)F [Example 110, trans-4-(4-((2-(3,5-dichloropyridin-4-yl)-2-oxoethyl)-(4,4-dimethylpent-2-ynyl)carbamoyl)-5-(trifluoromethyl)pyrazol-1-yl)cyclohexane-1-carboxylic acid]	162000
C[C@H](N(CC(=O)c1c(Cl)cncc1Cl)C(=O)c1cnn([C@H]2CC[C@H](C(=O)O)CC2)c1C(F)(F)F)C(C)(C)C [Example 114, trans-4-(4-((2-(3,5-dichloropyridin-4-yl)-2-oxoethyl)-((2S)-3,3-dimethylbutan-2-yl)carbamoyl)-5-(trifluoromethyl)pyrazol-1-yl)cyclohexane-1-carboxylic acid]	2.29e+06
C[C@@H](N(CC(=O)c1c(Cl)cncc1Cl)C(=O)c1cnn([C@H]2CC[C@H](C(=O)O)CC2)c1C(F)(F)F)C(C)(C)C [Example 115, trans-4-(4-((2-(3,5-dichloropyridin-4-yl)-2-oxoethyl)-((2R)-3,3-dimethylbutan-2-yl)carbamoyl)-5-(trifluoromethyl)pyrazol-1-yl)cyclohexane-1-carboxylic acid]	158000
N[C@]1(C(=O)O)CC[C@@H](n2ncc(C(=O)N(CC(=O)c3c(Cl)cncc3Cl)Cc3ccc(F)cc3)c2C(F)(F)F)CC1 [Example 116, cis-4-(4-((2-(3,5-dichloropyridin-4-yl)-2-oxoethyl)-((4-fluorophenyl)methyl)carbamoyl)-5-(trifluoromethyl)pyrazol-1-yl)-1-aminocyclohexane-1-carboxylic acid]	> 1e+07

Other lines, results leading:

IC50 [pM]	SMILES
282000	NC(=O)c1cc(Cl)c(C(=O)CN(Cc2cc(F)cc(F)c2)C(=O)c2cnn([C@H]3CC[C@H](C(=O)O)CC3)c2C(F)(F)F)c(Cl)c1 [Example 97, trans-4-(4-((2-(4-carbamoyl-2,6-dichlorophenyl)-2-oxoethyl)-((3,5 difluorophenyl)methyl)carbamoyl)-5-(trifluoromethyl)pyrazol-1-yl)cyclohexane-1-carboxylic acid]
> 1e+07	O=C(O)c1cc(Cl)c(C(=O)CN(Cc2cc(F)cc(F)c2)C(=O)c2cnn([C@H]3CC[C@H](C(=O)O)CC3)c2C(F)(F)F)c(Cl)c1 [Example 98, trans-4-(2-((1-(4-carboxycyclohexyl)-5-(trifluoromethyl)pyrazole-4-carbonyl)-((3,5-difluorophenyl)methyl)amino)acetyl)-3,5-dichlorobenzoic acid]
105000	O=C(CN(Cc1cc(F)cc(F)c1)C(=O)c1cnn([C@H]2CC[C@H](C(=O)O)CC2)c1C(F)(F)F)c1ccccc1Cl [Example 99, trans-4-(4-((2-(2-chlorophenyl)-2-oxoethyl)-((3,5-difluorophenyl)methyl)carbamoyl)-5-(trifluoromethyl)pyrazol-1-yl)cyclohexane-1-carboxylic acid]
1.91e+06	O=C(CN(Cc1ccccn1)C(=O)c1cnn([C@H]2CC[C@H](C(=O)O)CC2)c1C(F)(F)F)c1c(Cl)cncc1Cl [Example 103, trans-4-(4-((2-(3,5-dichloropyridin-4-yl)-2-oxoethyl)-(pyridin-2-ylmethyl)carbamoyl)-5-(trifluorornethyl)pyrazol-1-yl)cyclohexane-1-carboxylic acid]
2.04e+06	O=C(CN(Cc1cccnc1)C(=O)c1cnn([C@H]2CC[C@H](C(=O)O)CC2)c1C(F)(F)F)c1c(Cl)cncc1Cl [Example 104, trans-4-(4-((2-(3,5-dichloropyridin-4-yl)-2-oxoethyl)-(pyridin-3-ylmethyl)carbamoyl)-5-(trifluorornethyl)pyrazol-1-yl)cyclohexane-1-carboxylic acid]
2.82e+06	O=C(CN(Cc1cc(F)cc(F)c1)C(=O)c1cnn([C@H]2CC[C@H](C(=O)O)CC2)c1C(F)(F)F)c1cc(Cl)ccc1Cl [Example 107, trans-4-(4-((2-(2,5-dichlorophenyl)-2-oxoethyl)-((3,5-difluorophenyl)methyl)carbamoyl)-5-(trifluoromethyl)pyrazol-1-yl)cyclohexane-1-carboxylic acid]
324000	CC(CN(Cc1cc(F)cc(F)c1)C(=O)c1cnn([C@H]2CC[C@H](C(=O)O)CC2)c1C(F)(F)F)c1c(Cl)cccc1Cl (stereo partly drawn) [Example 108, trans-4-(4-(2-(2,6-dichlorophenyl)propyl-((3,5-difluorophenyl)methyl)carbamoyl)-5-(trifluoromethyl)pyrazol-1-yl)cyclohexane-1-carboxylic acid]
631000	COC(CN(Cc1cc(F)cc(F)c1)C(=O)c1cnn([C@H]2CC[C@H](C(=O)O)CC2)c1C(F)(F)F)c1c(Cl)cncc1Cl (stereo partly drawn) [Example 109, trans-4-(4-((2-(3,5-dichloropyridin-4-yl)-2-methoxyethyl)-((3,5-difluorophenyl)methyl)carbamoyl)-5-(trifluoromethyl)pyrazol-1-yl)cyclohexane-1-carboxylic acid]
355000	COc1cccc(OC)c1C(=O)CN(Cc1cc(F)cc(F)c1)C(=O)c1cnn([C@H]2CC[C@H](C(=O)O)CC2)c1C(F)(F)F [Example 111, trans-4-(4-((3,5-difluorophenyl)methyl-(2-(2,6-dimethoxyphenyl)-2-oxoethyl)carbamoyl)-5-(trifluoromethyl)pyrazol-1-yl)cyclohexane-1-carboxylic acid]
61700	COc1cc(Cl)cc(Cl)c1C(=O)CN(Cc1cc(F)cc(F)c1)C(=O)c1cnn([C@H]2CC[C@H](C(=O)O)CC2)c1C(F)(F)F [Example 112, trans-4-(4-((2-(2,4-dichloro-6-methoxyphenyl)-2-oxoethyl)-((3,5-difluorophenyl)methyl)carbamoyl)-5-(trifluoromethyl)pyrazol-1-yl)cyclohexane-1-carboxylic acid]
4.57e+06	O=C(CN(Cc1cc(F)cc(F)c1)C(=O)c1cnn([C@H]2CC[C@H](C(=O)O)CC2)c1C(F)(F)F)C1CCCC1 [Example 113, trans-4-(4-((2-cyclopentyl-2-oxoethyl)-((3,5-difluorophenyl)methyl)carbamoyl)-5-(trifluoromethyl)pyrazol-1-yl)cyclohexane-1-carboxylic acid]
